Measurements taken from PubChem BioAssay AID1259407 (Chemical Carcinogenesis Research Information System (CCRIS), 2018).
Calls of active or inactive are those of the source. The rule behind the calls is not given here.

System: CCRIS mutagenicity, Ames/micronucleus/aberration tests
Assay: CCRIS mutagenicity studies
[1] = Test System: AMES SALMONELLA TYPHIMURIUM, Strain/Indicator: TA98, Metabolic Activation: NONE, Method: STANDARD PLATE
[2] = Test System: AMES SALMONELLA TYPHIMURIUM, Strain/Indicator: TA98, Metabolic Activation: RAT, LIVER, S-9, AROCLOR 1254, Method: STANDARD PLATE
[3] = Test System: AMES SALMONELLA TYPHIMURIUM, Strain/Indicator: TA100, Metabolic Activation: NONE, Method: PREINCUBATION
[4] = Test System: AMES SALMONELLA TYPHIMURIUM, Strain/Indicator: TA100, Metabolic Activation: NONE, Method: STANDARD PLATE
[5] = Test System: AMES SALMONELLA TYPHIMURIUM, Strain/Indicator: TA100, Metabolic Activation: RAT, LIVER, S-9, AROCLOR 1254, Method: STANDARD PLATE
[6] = Test System: AMES SALMONELLA TYPHIMURIUM, Strain/Indicator: TA1538, Metabolic Activation: RAT, LIVER, S-9, AROCLOR 1254, Method: STANDARD PLATE
[7] = Test System: AMES SALMONELLA TYPHIMURIUM, Strain/Indicator: TA100, Metabolic Activation: RAT, LIVER, S-9, AROCLOR 1254, Method: PREINCUBATION
[8] = Test System: AMES SALMONELLA TYPHIMURIUM, Strain/Indicator: TA98, Metabolic Activation: RAT, LIVER, S-9, AROCLOR 1254, Method: PREINCUBATION

SMILES: CCOC(=O)CBr
- mutagenic call (End Point: IN VITRO CHROMOSOMAL ABERRATIONS, Test System: CHL CELLS, Metabolic Activation: RAT, LIVER, S-9, SODIUM PHENOBARBITAL AND 5,6-BENZOFLAVONE): inactive; negative; authors report equivocal results for structural changes at highest dos
- mutagenic call (Test System: AMES SALMONELLA TYPHIMURIUM, Strain/Indicator: TA98, Metabolic Activation: NONE, Method: PREINCUBATION): inactive; negative
- mutagenic call [1]: inactive; negative
- mutagenic call (Test System: AMES SALMONELLA TYPHIMURIUM, Strain/Indicator: TA98, Metabolic Activation: RAT LIVER S-9, PHENOBARBITAL AND BETA-NAPHTHOFLAVONE, Method: PREINCUBATION): inactive; negative
- mutagenic call [2]: inactive; negative
- mutagenic call [3]: inactive; negative
- mutagenic call [4]: inactive; negative
- mutagenic call (Test System: AMES SALMONELLA TYPHIMURIUM, Strain/Indicator: TA100, Metabolic Activation: RAT LIVER S-9, PHENOBARBITAL AND BETA-NAPHTHOFLAVONE, Method: PREINCUBATION): inactive; negative
- mutagenic call [5]: inactive; negative
- mutagenic call (Test System: AMES SALMONELLA TYPHIMURIUM, Strain/Indicator: TA102, Metabolic Activation: NONE, Method: PREINCUBATION): inactive; negative
- mutagenic call (Test System: AMES SALMONELLA TYPHIMURIUM, Strain/Indicator: TA102, Metabolic Activation: RAT LIVER S-9, PHENOBARBITAL AND BETA-NAPHTHOFLAVONE, Method: PREINCUBATION): inactive; negative
- mutagenic call (Test System: AMES SALMONELLA TYPHIMURIUM, Strain/Indicator: TA104, Metabolic Activation: NONE, Method: PREINCUBATION): inactive; negative
- mutagenic call (Test System: AMES SALMONELLA TYPHIMURIUM, Strain/Indicator: TA104, Metabolic Activation: RAT LIVER S-9, PHENOBARBITAL AND BETA-NAPHTHOFLAVONE, Method: PREINCUBATION): active; positive
- mutagenic call (Test System: AMES SALMONELLA TYPHIMURIUM, Strain/Indicator: TA1535, Metabolic Activation: HAMSTER, LIVER, S-9, AROCLOR 1254, Method: STANDARD PLATE): inactive; negative
- mutagenic call (Test System: AMES SALMONELLA TYPHIMURIUM, Strain/Indicator: TA1535, Metabolic Activation: NONE, Method: PREINCUBATION): inactive; negative
- mutagenic call (Test System: AMES SALMONELLA TYPHIMURIUM, Strain/Indicator: TA1535, Metabolic Activation: NONE, Method: STANDARD PLATE): inactive; negative
- mutagenic call (Test System: AMES SALMONELLA TYPHIMURIUM, Strain/Indicator: TA1535, Metabolic Activation: RAT LIVER S-9, PHENOBARBITAL AND BETA-NAPHTHOFLAVONE, Method: PREINCUBATION): inactive; negative
- mutagenic call (Test System: AMES SALMONELLA TYPHIMURIUM, Strain/Indicator: TA1535, Metabolic Activation: RAT, LIVER, S-9, AROCLOR 1254, Method: STANDARD PLATE): inactive; negative
- mutagenic call (Test System: AMES SALMONELLA TYPHIMURIUM, Strain/Indicator: TA1537, Metabolic Activation: HAMSTER, LIVER, S-9, AROCLOR 1254, Method: STANDARD PLATE): inactive; negative
- mutagenic call (Test System: AMES SALMONELLA TYPHIMURIUM, Strain/Indicator: TA1537, Metabolic Activation: NONE, Method: PREINCUBATION): inactive; negative
- mutagenic call (Test System: AMES SALMONELLA TYPHIMURIUM, Strain/Indicator: TA1537, Metabolic Activation: NONE, Method: STANDARD PLATE): inactive; negative
- mutagenic call (Test System: AMES SALMONELLA TYPHIMURIUM, Strain/Indicator: TA1537, Metabolic Activation: RAT LIVER S-9, PHENOBARBITAL AND BETA-NAPHTHOFLAVONE, Method: PREINCUBATION): inactive; negative
- mutagenic call (Test System: AMES SALMONELLA TYPHIMURIUM, Strain/Indicator: TA1537, Metabolic Activation: RAT, LIVER, S-9, AROCLOR 1254, Method: STANDARD PLATE): inactive; negative
- mutagenic call (Test System: AMES SALMONELLA TYPHIMURIUM, Strain/Indicator: TA1538, Metabolic Activation: HAMSTER, LIVER, S-9, AROCLOR 1254, Method: STANDARD PLATE): inactive; negative
- mutagenic call (Test System: AMES SALMONELLA TYPHIMURIUM, Strain/Indicator: TA1538, Metabolic Activation: NONE, Method: STANDARD PLATE): inactive; negative
- mutagenic call [6]: inactive; negative
- mutagenic call (Test System: E.COLI, Strain/Indicator: WP2UVRA/PKM101, Metabolic Activation: NONE, Method: PREINCUBATION): inactive; negative
- mutagenic call (Test System: E.COLI, Strain/Indicator: WP2UVRA/PKM101, Metabolic Activation: RAT LIVER S-9, PHENOBARBITAL AND BETA-NAPHTHOFLAVONE, Method: PREINCUBATION): active; positive
- mutagenic call (Test System: E.COLI, Strain/Indicator: WP2UVRA, Metabolic Activation: NONE, Method: PREINCUBATION): inactive; negative
- mutagenic call (Test System: E.COLI, Strain/Indicator: WP2UVRA, Metabolic Activation: RAT LIVER S-9, PHENOBARBITAL AND BETA-NAPHTHOFLAVONE, Method: PREINCUBATION): inactive; negative
- mutagenic call (Test System: MOUSE LYMPHOMA, Strain/Indicator: L5178Y (TK+/TK-), Metabolic Activation: NONE, Method: SUSPENSION/PLATE): active; positive. reevaluation of results: inconclusive
- mutagenic call (Test System: MOUSE LYMPHOMA, Strain/Indicator: L5178Y (TK+/TK-), Metabolic Activation: RAT, LIVER, S-9, AROCLOR 1254, Method: SUSPENSION/PLATE): active; positive. reevaluation of results: inconclusive

SMILES: Cc1cc2c(cc1C)C(C)c1ccccc1-2 (stereo not drawn)
- mutagenic call [2]: active; positive
- mutagenic call [5]: active; positive

SMILES: CCCCN(CCC(C)=O)N=O
- mutagenic call (Test System: AMES SALMONELLA TYPHIMURIUM, Strain/Indicator: TA1535, Metabolic Activation: RAT, LIVER, S-9, KC500 OR PHENOBARBITAL, Method: LIQUID SUSPENSION): active; positive

SMILES: C/C=C/C=C/CCCCCCCO
- mutagenic call [1]: inactive; negative
- mutagenic call (Test System: AMES SALMONELLA TYPHIMURIUM, Strain/Indicator: TA98, Metabolic Activation: RAT, LIVER, S-9, Method: STANDARD PLATE): inactive; negative
- mutagenic call [4]: inactive; negative
- mutagenic call (Test System: AMES SALMONELLA TYPHIMURIUM, Strain/Indicator: TA100, Metabolic Activation: RAT, LIVER, S-9, Method: STANDARD PLATE): inactive; negative
- mutagenic call (Test System: AMES SALMONELLA TYPHIMURIUM, Strain/Indicator: TA102, Metabolic Activation: NONE, Method: STANDARD PLATE): inactive; negative
- mutagenic call (Test System: AMES SALMONELLA TYPHIMURIUM, Strain/Indicator: TA102, Metabolic Activation: RAT, LIVER, S-9, Method: STANDARD PLATE): inactive; negative

SMILES: c1cnc2c(c1)-c1ncsc1CC2
- mutagenic call [6]: inactive; negative

SMILES: O=C(/C=C/c1ccccc1)c1ccccc1
- mutagenic call [1]: inactive; negative
- mutagenic call [2]: inactive; negative
- mutagenic call [3]: inactive; negative
- mutagenic call [4]: inactive; negative
- mutagenic call [7]: inactive; negative
- mutagenic call [5]: inactive; negative

SMILES: Cc1ccc(NO)cc1
- mutagenic call [8]: inactive; negative
- mutagenic call [3]: active; positive
- mutagenic call (Test System: AMES SALMONELLA TYPHIMURIUM, Strain/Indicator: TA100, Metabolic Activation: RAT, LIVER, S-9, PCB, Method: PREINCUBATION): active; positive
- mutagenic call (Test System: E. COLI, Strain/Indicator: WP2 UVRA, Metabolic Activation: NONE, Method: FLUCTUATION TEST): active; positive

SMILES: c1ccc2c(c1)cc1ccc3cccc4c5ccccc5c2c1c34
- mutagenic call (End Point: In vitro micronucleus, Test System: V79MZ Chinese hamster fibroblasts, Metabolic Activation: None): inactive; negative
- mutagenic call (End Point: In vitro micronucleus, Test System: V79MZ-h1A1 Chinese hamster fibroblasts (expressing human CYP1A1), Metabolic Activation: None): active; positive
- mutagenic call (End Point: In vitro micronucleus, Test System: V79MZ-h1B1 Chinese hamster fibroblasts (expressing human CYP1B1), Metabolic Activation: None): active; positive
- mutagenic call [8]: active; positive
- mutagenic call [7]: active; positive
- mutagenic call (Test System: CHINESE HAMSTER V-79, Strain/Indicator: V-79 (HPRT)/6-THIOGUANINE, Metabolic Activation: HUMAN MAMMARY CARCINOMA MCF-7 CELLS): active; positive
